# How the values were obtained:
# Assay in all cases: ≥ marks a high value that may be exact or a test limit, other limits are often not marked, values filed in µg/mL are converted to µM
# [1] = test system: Escherichia coli ATCC 25922
# [2] = test system: Staphylococcus aureus ATCC 29213
# Staphylococcus aureus = test system: Staphylococcus aureus
# [3] = test system: Staphylococcus epidermidis ATCC 12228
# Escherichia coli = test system: Escherichia coli
# Bacillus subtilis = test system: Bacillus subtilis
# Pseudomonas aeruginosa = test system: Pseudomonas aeruginosa
SMILES,MIC [1],MIC [2],MIC (Staphylococcus aureus),MIC (Escherichia coli),other results
CC[C@H](C)[C@H](NC(=O)[C@H](CCCN=C(N)N)NC(=O)[C@H](CCCCN)NC(=O)[C@@H](N)Cc1ccccc1)C(=O)NCC(=O)N[C@@H](CCC(N)=O)C(=O)N[C@@H](CCCN=C(N)N)C(=O)N[C@H](C(=O)N[C@@H](CCCCN)C(=O)N[C@@H](CC(=O)O)C(=O)N[C@@H](Cc1ccccc1)C(=O)N[C@@H](CC(C)C)C(=O)N[C@@H](CCCN=C(N)N)C(=O)O)[C@@H](C)CC [FKRIGQRIKDFLR],5 µM,> 40 µM,–,–,–
CC[C@H](C)[C@H](NC(=O)CN)C(=O)N[C@@H](CCCCN)C(=O)N[C@@H](CCCCN)C(=O)N[C@@H](Cc1c[nH]c2ccccc12)C(=O)N[C@@H](CC(C)C)C(=O)N[C@@H](Cc1cnc[nH]1)C(=O)N[C@@H](CCCCN)C(=O)N1CCC[C@H]1C(=O)N[C@@H](CCCCN)C(=O)N[C@@H](CCCCN)C(=O)N[C@@H](Cc1ccccc1)C(=O)N1CCC[C@H]1C(=O)N[C@@H](CCCCN)C(=O)N[C@@H](CCCCN)C(=O)N[C@@H](Cc1ccccc1)C(=O)N[C@H](C(=O)N[C@@H](CCCCN)C(=O)N[C@@H](CCCCN)C(=O)N[C@H](C(=O)N[C@@H](CCSC)C(=O)N[C@@H](CC(N)=O)C(=O)N[C@@H](CO)C(N)=O)[C@@H](C)CC)C(C)C [GIKKWLHKPKKFPKKFVKKIMNS],10 µM,–,–,–,MIC [3]: 1.25 µM
CC[C@H](C)[C@H](NC(=O)[C@H](Cc1ccccc1)NC(=O)CNC(=O)[C@H](CCCCN)NC(=O)[C@H](C)NC(=O)[C@H](Cc1ccccc1)NC(=O)[C@H](CCCCN)NC(=O)[C@H](CCCCN)NC(=O)[C@@H](NC(=O)[C@H](CO)NC(=O)[C@H](Cc1cnc[nH]1)NC(=O)[C@H](CC(C)C)NC(=O)[C@@H](NC(=O)[C@H](CCC(=O)O)NC(=O)[C@H](CCCCN)NC(=O)[C@H](CC(C)C)NC(=O)CN)C(C)C)[C@@H](C)O)C(=O)N[C@H](C(=O)NCC(=O)N[C@@H](CC(C)C)C(=O)N[C@H](C(=O)NCC(=O)N[C@@H](CCC(N)=O)C(=O)O)[C@@H](C)O)[C@@H](C)O [GLKEVLHSTKKFAKGFITGLTGQ],–,–,> 160 µM,> 160 µM,–
CC[C@H](C)[C@H](NC(=O)[C@@H](NC(=O)[C@@H](NC(=O)[C@H](Cc1c[nH]c2ccccc12)NC(=O)[C@@H](NC(=O)CN)C(C)C)[C@@H](C)O)[C@@H](C)O)C(=O)N[C@@H](CC(C)C)C(=O)NCC(=O)NCC(=O)N[C@@H](CC(C)C)C(=O)N[C@@H](CCCCN)C(=O)N[C@@H](CCCCN)C(=O)N[C@@H](Cc1ccccc1)C(=O)N[C@@H](C)C(=O)N[C@@H](CCCCN)C(=O)NCC(=O)NCC(=O)N[C@@H](CC(C)C)C(=O)N[C@@H](CCC(=O)O)C(=O)N[C@@H](C)C(=O)N[C@@H](CC(C)C)C(=O)N[C@H](C(=O)N[C@@H](CC(N)=O)C(=O)N1CCC[C@H]1C(=O)N[C@@H](CCCCN)C(=O)O)[C@@H](C)O [GVWTTILGGLKKFAKGGLEALTNPK],–,–,80 µM,40 µM,–
CC[C@H](C)[C@H](N)C(=O)N[C@@H](CC(N)=O)C(=O)N[C@@H](Cc1c[nH]c2ccccc12)C(=O)N[C@@H](CCCCN)C(=O)N[C@@H](CCCCN)C(=O)N[C@H](C(=O)N[C@@H](C)C(=O)N[C@@H](CO)C(=O)N[C@H](C(=O)NCC(=O)N[C@@H](CCCCN)C(=O)N[C@@H](CCC(=O)O)C(=O)N[C@H](C(=O)N[C@@H](CC(C)C)C(=O)N[C@@H](CCCCN)C(N)=O)C(C)C)[C@@H](C)CC)[C@@H](C)CC [INWKKIASIGKEVLK],–,–,–,100 µM,MIC (Bacillus subtilis): ≥ 100 µM
CC[C@H](C)[C@H](N)C(=O)N[C@@H](CC(N)=O)C(=O)N[C@@H](Cc1c[nH]c2ccccc12)C(=O)N[C@@H](CCCCN)C(=O)N[C@@H](CCCCN)C(=O)N[C@H](C(=O)N[C@@H](Cc1ccccc1)C(=O)N[C@@H](CCC(=O)O)C(=O)N[C@@H](CO)C(=O)N[C@H](C(=O)N[C@@H](CCCCN)C(=O)N[C@@H](CC(N)=O)C(=O)N[C@@H](CC(C)C)C(=O)N[C@H](C(N)=O)C(C)C)C(C)C)[C@@H](C)CC [INWKKIFESVKNLV],–,–,–,10 µM,MIC (Bacillus subtilis): 10 µM
CC[C@H](C)[C@H](N)C(=O)N[C@@H](CC(N)=O)C(=O)N[C@@H](Cc1c[nH]c2ccccc12)C(=O)N[C@@H](CCCCN)C(=O)N[C@@H](CO)C(=O)N[C@H](C(=O)N[C@@H](Cc1ccccc1)C(=O)N[C@@H](CCC(=O)O)C(=O)N[C@@H](CCCCN)C(=O)N[C@H](C(=O)N[C@@H](CCCCN)C(=O)N[C@@H](CC(N)=O)C(=O)N[C@@H](CC(C)C)C(=O)N[C@H](C(N)=O)C(C)C)C(C)C)[C@@H](C)CC [INWKSIFEKVKNLV],–,–,–,15 µM,MIC (Bacillus subtilis): 15 µM
CC[C@H](C)[C@H](N)C(=O)N[C@@H](CC(N)=O)C(=O)N[C@@H](Cc1c[nH]c2ccccc12)C(=O)N[C@@H](CC(C)C)C(=O)N[C@@H](CCCN=C(N)N)C(=O)N[C@@H](CC(C)C)C(=O)NCC(=O)N[C@@H](CCCN=C(N)N)C(=O)N[C@@H](CCCN=C(N)N)C(=O)N[C@H](C(=O)N[C@@H](CC(C)C)C(=O)NCC(=O)N[C@@H](C)C(=O)N[C@@H](CC(C)C)C(N)=O)[C@@H](C)CC [INWLRLGRRILGAL],–,–,–,> 100 µM,MIC (Bacillus subtilis): 17.5 µM
CC(=O)N[C@@H](CC(C)C)C(=O)N[C@@H](CCCCN)C(=O)N[C@@H](CCCCN)C(=O)N[C@@H](CC(C)C)C(=O)N1CCC[C@H]1C(=O)N[C@@H](CCCCN)C(=O)N[C@@H](CC(C)C)C(=O)N[C@@H](CO)C(=O)N[C@@H](CCCCN)C(=O)N[C@@H](CCCCN)C(=O)N[C@@H](CC(C)C)C(=O)N[C@@H](CC(C)C)C(=O)N[C@@H](CCCCN)C(=O)N[C@@H](CC(C)C)C(N)=O [LKKLPKLSKKLLKL],3.54 µM,14.1 µM,–,–,–
CC[C@H](C)[C@H](NC(=O)[C@@H](NC(=O)[C@H](C)NC(=O)[C@H](CCCN=C(N)N)NC(=O)[C@H](CC(N)=O)NC(=O)[C@H](Cc1ccccc1)NC(=O)[C@H](CO)NC(=O)[C@@H](NC(=O)[C@H](CCCN=C(N)N)NC(=O)[C@H](CCCN=C(N)N)NC(=O)[C@H](CCCN=C(N)N)NC(=O)[C@H](CC(C)C)NC(=O)[C@H](CCC(=O)O)NC(=O)[C@H](CC(N)=O)NC(=O)[C@H](CCC(=O)O)NC(=O)[C@H](CCC(=O)O)NC(=O)[C@H](CC(N)=O)NC(=O)[C@@H](N)CC(N)=O)C(C)C)C(C)C)C(=O)N[C@@H](Cc1cnc[nH]1)C(=O)N[C@@H](CO)C(=O)N[C@@H](CC(C)C)C(=O)N[C@@H](CC(C)C)C(=O)NCC(N)=O [NNEENELRRRVSFNRAVIHSLLG],> 257 µM,> 257 µM,–,–,–

# Further lines, with some results ahead:
MIC [1],MIC [2],MIC (Staphylococcus aureus),MIC (Escherichia coli),SMILES,other results
10 µM,> 40 µM,–,–,CC[C@H](C)[C@H](NC(=O)[C@H](CCCN=C(N)N)NC(=O)[C@H](CCCCN)NC(=O)[C@@H](N)Cc1ccccc1)C(=O)N[C@H](C(=O)N[C@@H](CCC(N)=O)C(=O)N[C@@H](CCCN=C(N)N)C(=O)N[C@@H](C)C(=O)N[C@@H](CCCCN)C(=O)N[C@@H](CC(=O)O)C(=O)N[C@@H](Cc1ccccc1)C(=O)N[C@@H](CC(C)C)C(=O)N[C@@H](CCCN=C(N)N)C(=O)O)C(C)C [FKRIVQRAKDFLR],–
20 µM,> 40 µM,–,–,CC[C@H](C)[C@H](NC(=O)[C@H](CCCN=C(N)N)NC(=O)[C@H](CCC(N)=O)NC(=O)[C@@H](NC(=O)[C@H](CC(N)=O)NC(=O)[C@H](CCCN=C(N)N)NC(=O)[C@H](CCCCN)NC(=O)[C@@H](N)Cc1ccccc1)C(C)C)C(=O)N[C@@H](CCCCN)C(=O)N[C@@H](CC(=O)O)C(=O)N[C@@H](Cc1ccccc1)C(=O)N[C@@H](CC(C)C)C(=O)N[C@@H](CCCN=C(N)N)C(=O)O [FKRNVQRIKDFLR],–
1.51 µM,0.533 µM,55 µM,–,CC[C@H](C)[C@H](NC(=O)[C@H](Cc1ccccc1)NC(=O)[C@@H]1CCCN1C(=O)[C@H](CC(C)C)NC(=O)[C@@H](N)Cc1ccccc1)C(=O)N[C@@H](C)C(=O)N[C@@H](CCCN=C(N)N)C(=O)N[C@@H](CC(C)C)C(=O)N[C@@H](C)C(=O)N[C@@H](C)C(=O)N[C@@H](CCCCN)C(=O)N[C@H](C(=O)N[C@@H](Cc1ccccc1)C(=O)N1CCC[C@H]1C(=O)N[C@@H](CO)C(=O)N[C@H](C(=O)N[C@H](C(=O)N[C@H]1CSSC[C@@H](C(=O)O)NC(=O)[C@H](CCCCN)NC(=O)[C@H](CCCCN)NC(=O)[C@H]([C@@H](C)O)NC(=O)[C@H](C(C)C)NC(=O)[C@H](CO)NC1=O)[C@@H](C)CC)[C@@H](C)CC)C(C)C [FLPFIARLAAKVFPSIICSVTKKC],–
–,–,1.4 µM,5.6 µM,CC[C@H](C)[C@H](NC(=O)[C@H](C)NC(=O)[C@H](CCCCN)NC(=O)[C@H](C)NC(=O)[C@@H](NC(=O)[C@H](CO)NC(=O)[C@H](CCCCN)NC(=O)[C@@H](NC(=O)[C@H](Cc1c[nH]c2ccccc12)NC(=O)[C@H](CCCCN)NC(=O)[C@H](CC(C)C)NC(=O)[C@@H](NC(=O)[C@H](CO)NC(=O)[C@H](CCCCN)NC(=O)[C@H](C)NC(=O)[C@@H](NC(=O)[C@H](C)NC(=O)[C@@H](N)CCCCN)[C@@H](C)CC)[C@@H](C)CC)[C@@H](C)CC)[C@@H](C)CC)C(N)=O [KAIAKSILKWIKSIAKAI],MIC (Pseudomonas aeruginosa): 11.2 µM
–,–,120 µM,15 µM,CC(C)C[C@H](NC(=O)CNC(=O)[C@H](C)NC(=O)[C@H](CCCCN)NC(=O)[C@H](CC(C)C)NC(=O)[C@H](CCCCN)NC(=O)[C@H](C)NC(=O)[C@H](CC(C)C)NC(=O)CNC(=O)[C@H](C)NC(=O)[C@H](CCCCN)NC(=O)[C@H](Cc1c[nH]c2ccccc12)NC(=O)[C@H](CCCCN)NC(=O)[C@H](C)NC(=O)[C@H](CC(C)C)NC(=O)CNC(=O)[C@H](C)NC(=O)[C@H](CCCCN)NC(=O)[C@H](CC(C)C)NC(=O)[C@@H](N)CCCCN)C(=O)N[C@@H](C)C(N)=O [KLKAGLAKWKAGLAKLKAGLA],MIC (Pseudomonas aeruginosa): > 120 µM
8 µM,–,2.13 µM,10.7 µM,CC(C)C[C@H](NC(=O)[C@H](Cc1ccccc1)NC(=O)[C@@H]1CCCN1C(=O)[C@H](Cc1c[nH]c2ccccc12)NC(=O)[C@H](Cc1c[nH]c2ccccc12)NC(=O)[C@H](Cc1c[nH]c2ccccc12)NC(=O)[C@H](C)NC(=O)[C@H](Cc1ccccc1)NC(=O)[C@H](CCCN=C(N)N)NC(=O)[C@H](CCCN=C(N)N)NC(=O)[C@@H](N)C(C)C)C(=O)N[C@@H](CCCN=C(N)N)C(=O)N[C@@H](CCCN=C(N)N)C(N)=O [VRRFAWWWPFLRR],–

# Source: DBAASP
